SMILES strings stand for the structures. Several values for one entry are separate records, joined by “and”; a condition that tells them apart may be missing. Equal values may be shown once.

The target in the experiment is T1, rat mGlu2 (Rattus norvegicus, UniProt P31421).
T1 construct: expressed in transfected cells; host or cells: HEK-293
T1 sequence (P31421 19-872): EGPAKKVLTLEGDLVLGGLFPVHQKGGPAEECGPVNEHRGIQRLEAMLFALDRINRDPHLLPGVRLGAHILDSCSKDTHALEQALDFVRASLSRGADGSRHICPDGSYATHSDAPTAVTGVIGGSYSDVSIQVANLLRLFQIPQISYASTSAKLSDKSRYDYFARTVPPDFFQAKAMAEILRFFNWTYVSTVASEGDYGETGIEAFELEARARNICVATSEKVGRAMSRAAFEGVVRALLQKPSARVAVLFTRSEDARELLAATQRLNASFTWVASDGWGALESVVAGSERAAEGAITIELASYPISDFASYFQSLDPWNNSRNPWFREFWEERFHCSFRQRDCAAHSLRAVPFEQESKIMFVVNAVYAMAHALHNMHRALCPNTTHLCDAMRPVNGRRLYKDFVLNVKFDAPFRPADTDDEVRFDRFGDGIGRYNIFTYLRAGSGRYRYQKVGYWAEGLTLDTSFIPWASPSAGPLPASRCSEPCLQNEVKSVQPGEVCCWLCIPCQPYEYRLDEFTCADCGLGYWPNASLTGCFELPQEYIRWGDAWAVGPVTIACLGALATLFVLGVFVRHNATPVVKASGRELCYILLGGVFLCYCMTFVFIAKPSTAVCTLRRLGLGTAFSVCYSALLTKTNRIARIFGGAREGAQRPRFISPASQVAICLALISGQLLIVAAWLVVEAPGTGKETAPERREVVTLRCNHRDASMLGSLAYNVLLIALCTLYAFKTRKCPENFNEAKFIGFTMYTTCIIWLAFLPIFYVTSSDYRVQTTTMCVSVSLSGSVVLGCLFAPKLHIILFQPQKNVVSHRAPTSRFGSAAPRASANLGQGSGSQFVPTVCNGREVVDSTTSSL
Description: mGlu GIRK cell-based thallium flux assay, rat mGlu2. To be noted: rat mGlu2 GIRK IC50 (nM), HEK-293 cells co-expressing rat mGlu2 and GIRK; EC80 glutamate; Tl flux. The protocol: The day before the assay, GIRK cells co-expressing human mGlu3, human or rat mGlu2, as described above, were plated in black-walled, clear-bottomed, amine-coated 384-well plates at a density of 15,000 cells/20 μL/well in the assay medium (glutamine-depleted basal DMEM supplemented with 10% dialyzed FBS, 20 mM HEPES, 1 mM sodium pyruvate). Cells were incubated at 37° C. in the presence of 5% CO2. […] Cells were washed with assay buffer using a microplate washer to remove the medium, resulting in 20 μL of buffer remaining in each well. Immediately, 20 μL of 2× Thallos dye solution was added to cells, and incubated for one hour at 25° C. During the cell dye loading incubation period, a 10-point concentration serial dilution of compound was created from a 10 mM DMSO compound stock by performing a 1:3 serial dilution in DMSO using the Bravo liquid handler. The 2× compound plate was generated by transferring 0.24 μL of the diluted compound in each well to a daughter plate using an Echo acoustic liquid handler.
After dye-loading, cell plates were washed with assay buffer to remove excess extracellular dye using a microplate washer, resulting in 20 μL of buffer remaining in each well. After a ten-minute equilibration period, cell, compound and agonist plates were loaded into a Hamamatsu μCell kinetic imaging plate reader equipped with liquid handler to monitor fluorescence changes at 480 nm excitation and 540 nm emission settings. Briefly, after collection of baseline fluorescence, 20 μL of compound was added and incubated for two minutes and twenty seconds. This is immediately followed by adding 10 μL of glutamate-thallium buffer to the wells containing compound. The fluorescent signal was monitored an additional 2.5 minutes after the glutamate addition. Multiple reference wells containing no compound received either no glutamate (for a baseline reference), […] glutamate, or ECmax glutamate (for normalization to maximum response). Fluorescence was measured throughout the experiment at a frequency of 1 measurement per every 2 seconds before the glutamate addition and a frequency of 1 measurement per every 1 second after the glutamate addition. Each compound concentration series occurred one time in each plate, and replicates from two or three plates were used in each experimental run. Thallium solutions were handled and disposed of according to guidelines from the Vanderbilt University Chemical Safety department.
Data were normalized using a static ratio function (F/F0) by dividing every fluorescent measurement by the initial fluorescent value for the corresponding well. The increase in signal resulting from the glutamate/thallium addition of the second add was measured by determining the slope from 3 seconds to 13 seconds after the addition. The average of all baseline slopes (no compound, no glutamate) was determined and this value was subtracted from all other slope values. The average of all ECmax slopes was determined and this value was used to normalize the baseline-corrected slopes to a percent max value (% Emax). The % Emax values for each compound series were plotted versus the log of the concentration and fit to a 4-parameter logistical equation with no fixed parameters.
Potency is reported as the IC50 resulting from the curve fit.
Turning to `Cc1ncc(COc2cc3c(cc2-c2ccc(F)cc2)C(=O)NC3)s1` [Compound 26, 6-(4-fluorophenyl)-5-((2-methylthiazol-5-yl)methoxy)isoindolin-1-one], the half-inhibitory concentration (IC50) is 92 nM.
As for `CC(Oc1cc2c(cc1-c1ccc(F)cc1)C(=O)NC2)c1ccncc1` (centres unmarked) [Compound 27, 6-(4-fluorophenyl)-5-(1-(pyridin-4-yl)ethoxy)isoindolin-1-one], half-maximal inhibition (IC50) required 321 nM.
The value for `CC(Oc1cc2c(cc1-c1ccc(F)cc1F)C(=O)NC2)c1ccncc1` (centres unmarked) [Compound 28, 6-(2,4-difluorophenyl)-5-(1-(pyridin-4-yl)ethoxy)isoindolin-1-one] was 305 nM.
Next, `Cc1csc(C(C)Oc2cc3c(cc2-c2ccc(F)cc2)C(=O)NC3)n1` (centres unmarked) [Compound 29, 6-(4-fluorophenyl)-5-(1-(4-methylthiazol-2-yl)ethoxy)isoindolin-1-one]: 1690 nM; `[2H]C([2H])(Oc1cc2c(cc1-c1ccc(F)cc1)C(=O)NC2)c1cnn(C)c1` [Compound 30, 6-(4-fluorophenyl)-5-((1-methyl-1H-pyrazol-4-yl)methoxy-d2)isoindolin-1-one]: 418 nM; `O=C1NCc2cc(Oc3ccncc3)c(-c3ccc(F)cc3)cc21` [Compound 31, 6-(4-fluorophenyl)-5-(pyridin-4-yloxy)isoindolin-1-one]: 1160 nM.
The value for `O=C1NCc2cc(Oc3ccncc3)c(-c3ccc(F)cc3F)cc21` [Compound 32, 6-(2,4-difluorophenyl)-5-(pyridin-4-yloxy)isoindolin-1-one] was 151 nM.
Consider `O=C1NCc2cc(OC3CN(c4ccncc4)C3)c(-c3ccc(F)cc3)cc21` [Compound 33, 6-(4-fluorophenyl)-5-((1-(pyridin-4-yl)azetidin-3-yl)oxy)isoindolin-1-one], for which the IC50 is above 10000 nM.
The value for `[2H]C1([2H])NC(=O)c2cc(-c3ccc(F)cc3)c(OC([2H])([2H])c3cnn(C)c3)cc21` [Compound 34, 6-(4-fluorophenyl)-5-((1-methyl-1H-pyrazol-4-yl)methoxy-d2)isoindolin-1-one-3,3-d2] was 836 nM; that for `CC(Oc1cc2c(cc1-c1ccc(-c3cccs3)cc1)C(=O)NC2)c1ccncc1` (centres unmarked) [Compound 36, 5-(1-(pyridin-4-yl)ethoxy)-6-(4-(thiophen-2-yl)phenyl)isoindolin-1-one] was above 30000 nM.
Next, `CC(Oc1cc2c(cc1-c1ccc(OC(F)F)cc1F)C(=O)NC2)c1ccncc1` (centres unmarked) [Compound 37, 6-(4-(difluoromethoxy)-2-fluorophenyl)-5-(1-(pyridin-4-yl)ethoxy)isoindolin-1-one]: 781 nM; `CC(Oc1cc2c(cc1-c1ccc(N3CCOCC3)cc1)C(=O)NC2)c1ccncc1` (centres unmarked) [Compound 38, 6-(4-morpholinophenyl)-5-(1-(pyridin-4-yl)ethoxy)isoindolin-1-one]: above 10000 nM.
Take `CC(Oc1cc2c(cc1-c1ccc(OC(F)(F)F)cc1)C(=O)NC2)c1ccncc1` (centres unmarked) [Compound 39, 5-(1-(pyridin-4-yl)ethoxy)-6-(4-(trifluoromethoxy)phenyl)isoindolin-1-one]: the 50% inhibitory concentration (IC50) is above 10000 nM.
Next, `CC(Oc1cc2c(cc1-c1ccc(F)nc1)C(=O)NC2)c1ccncc1` (centres unmarked) [Compound 40, 6-(6-fluoropyridin-3-yl)-5-(1-(pyridin-4-yl)ethoxy)isoindolin-1-one]: above 10000 nM.
Next, `Cn1ccc(COc2cc3c(cc2-c2cc(F)nc(F)c2)C(=O)NC3)n1` [Compound 41, 6-(2,6-difluoropyridin-4-yl)-5-((1-methyl-1H-pyrazol-3-yl)methoxy)isoindolin-1-one]: above 10000 nM.
As for `Cn1ccc(COc2cc3c(cc2-c2ccc(OC(F)F)cc2F)C(=O)NC3)n1` [Compound 42, 6-(4-(difluoromethoxy)-2-fluorophenyl)-5-((1-methyl-1H-pyrazol-3-yl)methoxy)isoindolin-1-one], the concentration for half-maximal inhibition (IC50) was 393 nM.
`Cn1ccc(COc2cc3c(cc2-c2ccc(OC(F)(F)F)cc2)C(=O)NC3)n1` [Compound 43, 5-((1-methyl-1H-pyrazol-3-yl)methoxy)-6-(4-(trifluoromethoxy)phenyl)isoindolin-1-one] registered an IC50 of 2370 nM.
Take `Cn1ccc(COc2cc3c(cc2-c2ccc(F)nc2)C(=O)NC3)n1` [Compound 44, 6-(6-fluoropyridin-3-yl)-5-((1-methyl-1H-pyrazol-3-yl)methoxy)isoindolin-1-one]: the IC50 came to 1840 nM.
`Cc1nn(C)cc1-c1cc2c(cc1OCc1ccn(C)n1)CNC2=O` [Compound 45, 6-(1,3-dimethyl-1H-pyrazol-4-yl)-5-((1-methyl-1H-pyrazol-3-yl)methoxy)isoindolin-1-one] had an IC50 of 3820 nM.
Next, `Cn1cc(-c2cc3c(cc2OCc2ccn(C)n2)CNC3=O)cn1` [Compound 46, 5-((1-methyl-1H-pyrazol-3-yl)methoxy)-6-(1-methyl-1H-pyrazol-4-yl)isoindolin-1-one]: above 10000 nM.
The value for `Cn1ccc(-c2cc3c(cc2OCc2ccn(C)n2)CNC3=O)c1` [Compound 47, 5-((1-methyl-1H-pyrazol-3-yl)methoxy)-6-(1-methyl-1H-pyrrol-3-yl)isoindolin-1-one] was above 10000 nM.
For the molecule `Cc1cc(-c2cc3c(cc2OCc2ccn(C)n2)CNC3=O)n(C)n1` [Compound 48, 6-(1,3-dimethyl-1H-pyrazol-5-yl)-5-((1-methyl-1H-pyrazol-3-yl)methoxy)isoindolin-1-one], the concentration for half-maximal inhibition (IC50) was above 10000 nM.
Next, `Cc1c(-c2cc3c(cc2OCc2ccn(C)n2)CNC3=O)cc(C#N)n1C` [Compound 49, 1,5-dimethyl-4-(6-((1-methyl-1H-pyrazol-3-yl)methoxy)-3-oxoisoindolin-5-yl)-1H-pyrrole-2-carbonitrile]: above 10000 nM; `Cn1ccc(COc2cc3c(cc2-c2cnn(C(F)F)c2)C(=O)NC3)n1` [Compound 50, 6-(1-(difluoromethyl)-1H-pyrazol-4-yl)-5-((1-methyl-1H-pyrazol-3-yl)methoxy)isoindolin-1-one]: 2360 nM; `Cn1ccc(COc2cc3c(cc2-c2ccc4c(c2)CCO4)C(=O)NC3)n1` [Compound 51, 6-(2,3-dihydrobenzofuran-5-yl)-5-((1-methyl-1H-pyrazol-3-yl)methoxy)isoindolin-1-one]: 965 nM.
For the molecule `Cn1ccc(COc2cc3c(cc2-c2ccc4ncsc4c2)C(=O)NC3)n1` [Compound 52, 6-(benzo[d]thiazol-6-yl)-5-((1-methyl-1H-pyrazol-3-yl)methoxy)isoindolin-1-one], it took 675 nM to reach half-maximal inhibition (IC50).
Next, `Cn1ccc(COc2cc3c(cc2-c2ccc4c(c2)OCO4)C(=O)NC3)n1` [Compound 55, 6-(benzo[d][1,3]dioxol-5-yl)-5-((1-methyl-1H-pyrazol-3-yl)methoxy)isoindolin-1-one]: 1190 nM and 362 nM; `Cn1ccc(COc2cc3c(cc2-c2ccc4c(c2)OCCO4)C(=O)NC3)n1` [Compound 56, 6-(2,3-dihydrobenzo[b][1,4]dioxin-6-yl)-5-((1-methyl-1H-pyrazol-3-yl)methoxy)isoindolin-1-one]: 2930 nM and 7540 nM.
The molecule `[2H]C([2H])(Oc1cc2c(cc1-c1cc(F)cc(C#N)c1)C(=O)NC2)c1ccc(C)nc1` [Compound 59, 3-fluoro-5-(6-((6-methylpyridin-3-yl)methoxy-d2)-3-oxoisoindolin-5-yl)benzonitrile] yielded an IC50 above 10000 nM.

A word on the IC50: it is the concentration at which inhibition is half-maximal. The low end stands for inhibition by little substance, the high end for a need for much substance.
